Laboratory results reported in article PMC2798597 (Biochemical pharmacology, 2009).

Tests used:
MCF-7 = test: MTT cytotoxicity / MDR reversal; format: cell-based, human; settings: MCF-7 cells
KBv200 cells [1] = test: Intracellular Dox accumulation; format: cell-based, human
[2] = FG020326 plasma levels in mice; format: in vivo; settings: NIH mice, 100 mg/kg p.o.; for plasma concentration at 8 h: 8 h after administration
KB = test: MTT cytotoxicity / MDR reversal; format: cell-based, human; settings: KB cells
KB-CV60 (ABCC1) = test: MTT cytotoxicity / MDR reversal; format: cell-based, human; settings: KB-CV60 cells; +5 µM FG020326
KB cells [3] = test: Dox efflux; format: cell-based, human; settings: 5 µM FG020326
KB cells [4] = test: ABCB1 function analysis, Rho 123 retention; format: cell-based, human; settings: drug sensitive KB cells
KB-3-1 = test: MTT cytotoxicity / MDR reversal; format: cell-based, human; settings: KB-3-1 cells; +5 µM FG020326
KB cells [5] = test: Intracellular Dox accumulation; format: cell-based, human; settings: drug sensitive KB cells; 0.625-10 µM
[6] = tested on: ABCB1 expression in KBv200 cells; settings: 48 h, Western blot
KBv200 cells [7] = test: Dox efflux; format: cell-based, human; settings: 5 µM FG020326
[8] = tested on: the entire cell lines tested; test: MTT cytotoxicity of FG020326 alone; format: cell-based
SW1573/2R120 (LRP) = test: MTT cytotoxicity / MDR reversal; format: cell-based, human; settings: SW1573/2R120 cells; +5 µM FG020326
S1-M1-80 (ABCG2) = test: MTT cytotoxicity / MDR reversal; format: cell-based; settings: S1-M1-80 cells; +5 µM FG020326
KBv200 cell xenografts = test: MDR human carcinoma xenograft model; format: in vivo, athymic nude mice
NIH3T3/MRP-4-2 (ABCC4) = test: MTT cytotoxicity / MDR reversal; format: cell-based, murine; settings: NIH3T3/MRP-4-2 cells; +5 µM FG020326
SW1573 = test: MTT cytotoxicity / MDR reversal; format: cell-based, human; settings: SW1573 cells; +5 µM FG020326
S1 = test: MTT cytotoxicity / MDR reversal; format: cell-based; settings: S1 cells; +5 µM FG020326
KBv200 (ABCB1) = test: MTT cytotoxicity / MDR reversal; format: cell-based, human; settings: KBv200 cells
NIH3T3 = test: MTT cytotoxicity / MDR reversal; format: cell-based, murine; settings: NIH3T3 cells; +5 µM FG020326
ABCB1 = ABCB1 (Homo sapiens, UniProt P08183); format: biochemical; settings: read-out: IC50, inhibition of ABCB1 ATPase activity; Vi-sensitive ATPase; membrane vesicles of High Five insect cells
MCF-7/adr (ABCB1) = test: MTT cytotoxicity / MDR reversal; format: cell-based, human; settings: MCF-7/adr cells
[9] = VCR experiment, VCR 0.2 mg/kg i.p. q2d×6, FG020326 100 mg/kg p.o. q2d×6
[10] = paclitaxel experiment, paclitaxel 18 mg/kg i.p. q5d×3, FG020326 100 mg/kg p.o.

Chain of ABCB1 (P08183 whole entry): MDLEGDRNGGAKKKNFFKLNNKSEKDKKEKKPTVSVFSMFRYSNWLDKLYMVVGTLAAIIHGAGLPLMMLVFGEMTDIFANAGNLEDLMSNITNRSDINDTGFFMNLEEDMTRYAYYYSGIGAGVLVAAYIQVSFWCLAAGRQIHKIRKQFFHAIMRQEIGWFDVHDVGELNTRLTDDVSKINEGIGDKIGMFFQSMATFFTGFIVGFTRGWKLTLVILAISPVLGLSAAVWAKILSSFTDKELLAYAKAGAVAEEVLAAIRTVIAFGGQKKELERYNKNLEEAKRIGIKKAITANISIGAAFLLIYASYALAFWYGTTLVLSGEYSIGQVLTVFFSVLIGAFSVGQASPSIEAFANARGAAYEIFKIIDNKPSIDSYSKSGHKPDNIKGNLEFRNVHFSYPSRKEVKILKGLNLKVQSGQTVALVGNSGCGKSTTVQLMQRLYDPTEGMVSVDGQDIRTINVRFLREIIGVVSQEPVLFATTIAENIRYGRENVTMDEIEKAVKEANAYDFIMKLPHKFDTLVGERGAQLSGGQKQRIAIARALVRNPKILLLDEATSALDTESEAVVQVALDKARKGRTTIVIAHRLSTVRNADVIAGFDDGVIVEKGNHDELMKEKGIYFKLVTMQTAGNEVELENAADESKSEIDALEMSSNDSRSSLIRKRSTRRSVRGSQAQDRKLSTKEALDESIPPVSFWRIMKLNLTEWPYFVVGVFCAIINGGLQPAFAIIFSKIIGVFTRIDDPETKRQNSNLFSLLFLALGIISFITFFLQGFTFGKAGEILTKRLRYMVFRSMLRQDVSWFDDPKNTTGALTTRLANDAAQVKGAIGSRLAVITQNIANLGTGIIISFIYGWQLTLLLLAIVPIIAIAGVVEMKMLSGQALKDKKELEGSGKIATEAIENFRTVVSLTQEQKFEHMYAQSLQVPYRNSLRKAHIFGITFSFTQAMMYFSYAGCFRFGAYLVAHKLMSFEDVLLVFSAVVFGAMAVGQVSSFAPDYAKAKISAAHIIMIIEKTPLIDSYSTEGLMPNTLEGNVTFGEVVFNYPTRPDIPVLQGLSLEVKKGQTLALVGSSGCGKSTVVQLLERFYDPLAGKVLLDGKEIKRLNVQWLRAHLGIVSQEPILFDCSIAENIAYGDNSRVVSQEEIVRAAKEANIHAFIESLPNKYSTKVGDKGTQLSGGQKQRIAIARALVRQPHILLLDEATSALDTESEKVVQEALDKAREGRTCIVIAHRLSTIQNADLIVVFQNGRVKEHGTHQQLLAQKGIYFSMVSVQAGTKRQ

## COC(=O)/C=C/c1ccc(-c2nc(-c3ccc(N(C)C(C)C)cc3)c(-c3ccc(N(C)C(C)C)cc3)[nH]2)cc1 [FG020326, 2-[(4-Methyl-trans-acrylate)phenyl]-4,5-bis-(4-N, N-methyl-isopropyl-aminophenyl)-1(H)-imidazole]
MCF-7; +1.25 µM FG020326
  fold-reversal (doxorubicin): (1.0) fold
  fold-reversal (paclitaxel): (1.1) fold
  fold-reversal (vincristine): (0.9) fold
MCF-7; +2.5 µM FG020326
  fold-reversal (doxorubicin): (1.0) fold
  fold-reversal (paclitaxel): (1.0) fold
  fold-reversal (vincristine): (1.0) fold
MCF-7; +5 µM FG020326
  fold-reversal (cisplatin): (0.9) fold
  fold-reversal (doxorubicin): (0.9) fold
  fold-reversal (paclitaxel): (1.0) fold
  fold-reversal (vincristine): (0.9) fold
KBv200 cells [1]; 0.625 µM FG020326, 10 µM Dox
  enhancement of Dox accumulation: 1.4 fold
KBv200 cells [1]; 1.25 µM FG020326, 10 µM Dox
  enhancement of Dox accumulation: 2.1 fold
KBv200 cells [1]; 2.5 µM FG020326, 10 µM Dox
  enhancement of Dox accumulation: 2.6 fold
KBv200 cells [1]; 5 µM FG020326, 10 µM Dox
  enhancement of Dox accumulation: 3.0 fold
KBv200 cells [1]; 10 µM FG020326, 10 µM Dox
  enhancement of Dox accumulation: 3.7 fold
[2]; 100 mg/kg
  peak plasma concentration: about 5.3 µM
  plasma concentration at 8 h: not less than 1.24 µM
[2]; listed as FG020236, 100 mg/kg
  plasma concentration at 8 h: > 1240 nM
  peak plasma concentration: 5.3 µM
[2]; 12 h after administration
  plasma concentration at 12 h: 920 nM
KB; +1.25 µM FG020326
  fold-reversal (doxorubicin): (1.0) fold
  fold-reversal (paclitaxel): (1.0) fold
  fold-reversal (vincristine): (1.0) fold
KB; +2.5 µM FG020326
  fold-reversal (doxorubicin): (1.0) fold
  fold-reversal (paclitaxel): (1.0) fold
  fold-reversal (vincristine): (1.0) fold
KB; +5 µM FG020326
  fold-reversal (5-FU): (1.0) fold
  fold-reversal (doxorubicin): (0.9) fold
  fold-reversal (paclitaxel): (1.1) fold
  fold-reversal (vincristine): (1.0) fold
KB-CV60 (ABCC1)
  fold-reversal (vincristine): (0.9) fold
KB cells [3]
  effect on efflux of Dox: but not the KB cells
KB cells [4]
  effect on Rho 123 accumulation: not significantly altered
KB-3-1
  fold-reversal (vincristine): (0.9) fold
KB cells [5]
  effect on intracellular accumulation of Dox: did not significantly alter the intracellular accumulation of Dox
[6]
  effect on ABCB1 protein expression level: no marked difference
KBv200 cells [7]
  effect on efflux of Dox: significantly inhibited the efflux of Dox
[8]; all cell lines, concentrations used to reverse MDR, data not shown
  Cell survival: > 90%
[8]; read-out: IC50 (cytotoxicity of FG020326 alone), MTT, entire cell lines tested
  IC50: > 50000 nM
SW1573/2R120 (LRP)
  fold-reversal (doxorubicin): (1.0) fold
S1-M1-80 (ABCG2)
  fold-reversal (topotecan): (1.0) fold
KBv200 cell xenografts; [9]
  Growth Inhibition: 9.4%
  Weight of tumor: 2.43 ± 0.70 g
KBv200 cell xenografts; [10]
  Growth Inhibition: 7.2%
  Weight of tumor: 2.08 ± 1.00 g
NIH3T3/MRP-4-2 (ABCC4)
  fold-reversal (vincristine): (0.9) fold
SW1573
  fold-reversal (doxorubicin): (1.2) fold
S1
  fold-reversal (topotecan): (1.1) fold
KBv200 (ABCB1); +1.25 µM FG020326
  fold-reversal (doxorubicin): (4.2) fold
  fold-reversal (paclitaxel): (5.0) fold
  fold-reversal (vincristine): (16.7) fold
KBv200 (ABCB1); +2.5 µM FG020326
  fold-reversal (doxorubicin): (8.0) fold
  fold-reversal (paclitaxel): (10.3) fold
  fold-reversal (vincristine): (34.7) fold
KBv200 (ABCB1); +5 µM FG020326
  fold-reversal (doxorubicin): (12.2) fold
  fold-reversal (paclitaxel): (30.4) fold
  fold-reversal (vincristine): (57.3) fold
NIH3T3
  fold-reversal (vincristine): (0.9) fold
ABCB1
  IC50: 2500 nM
MCF-7/adr (ABCB1); +1.25 µM FG020326
  fold-reversal (doxorubicin): (6.4) fold
  fold-reversal (paclitaxel): (3.5) fold
  fold-reversal (vincristine): (2.3) fold
MCF-7/adr (ABCB1); +2.5 µM FG020326
  fold-reversal (doxorubicin): (9.6) fold
  fold-reversal (paclitaxel): (8.8) fold
  fold-reversal (vincristine): (4.6) fold
MCF-7/adr (ABCB1); +5 µM FG020326
  fold-reversal (cisplatin): (0.9) fold
  fold-reversal (doxorubicin): (14.3) fold
  fold-reversal (paclitaxel): (22.0) fold
  fold-reversal (vincristine): (10.7) fold
